Drawing on ChEMBL document CHEMBL3886652, “Arlethynyl derivatives” (2016), this text covers EC50 for two compounds.

This test has as its target Metabotropic glutamate receptor 5 (Homo sapiens, UniProt P41594). Briefly: Intracellular Ca2+ Mobilization Assay: A monoclonal HEK-293 cell line stably transfected with a cDNA encoding for the human mGlu5a receptor was generated; for the work with mGlu5 Positive Allosteric Modulators (PAMs), a cell line with low receptor expression levels and low constitutive receptor activity was selected to allow the differentiation of agonistic versus PAM activity. Cells were cultured according to standard protocols (Freshney, 2000) in Dulbecco's Modified Eagle Medium with high glucose supplemented with 1 mM glutamine, 10% (vol/vol) heat-inactivated bovine calf serum, Penicillin/Streptomycin, 50 μg/ml hygromycin and 15 μg/ml blasticidin (all cell culture reagents and antibiotics from Invitrogen, Basel, Switzerland). bout 24 hrs before an experiment, 5×10^4 cells/well were seeded in poly-D-lysine coated, black/clear-bottomed 96-well plates. The cells were loaded with 2.5 μM Fluo-4AM in loading buffer (1×HBSS, 20 mM HEPES) for 1 hr at 37 °C. and washed five times with loading buffer. The cells were transferred into a Functional Drug Screening System 7000 (Hamamatsu, Paris, France), and 11 half logarithmic serial dilutions of test compound at 37 °C. were added and the cells were incubated for 10-30 min. with on-line recording of fluorescence. […]. The format is cell-based, HEK293.

Metabotropic glutamate receptor 5, sequence (P41594 whole entry): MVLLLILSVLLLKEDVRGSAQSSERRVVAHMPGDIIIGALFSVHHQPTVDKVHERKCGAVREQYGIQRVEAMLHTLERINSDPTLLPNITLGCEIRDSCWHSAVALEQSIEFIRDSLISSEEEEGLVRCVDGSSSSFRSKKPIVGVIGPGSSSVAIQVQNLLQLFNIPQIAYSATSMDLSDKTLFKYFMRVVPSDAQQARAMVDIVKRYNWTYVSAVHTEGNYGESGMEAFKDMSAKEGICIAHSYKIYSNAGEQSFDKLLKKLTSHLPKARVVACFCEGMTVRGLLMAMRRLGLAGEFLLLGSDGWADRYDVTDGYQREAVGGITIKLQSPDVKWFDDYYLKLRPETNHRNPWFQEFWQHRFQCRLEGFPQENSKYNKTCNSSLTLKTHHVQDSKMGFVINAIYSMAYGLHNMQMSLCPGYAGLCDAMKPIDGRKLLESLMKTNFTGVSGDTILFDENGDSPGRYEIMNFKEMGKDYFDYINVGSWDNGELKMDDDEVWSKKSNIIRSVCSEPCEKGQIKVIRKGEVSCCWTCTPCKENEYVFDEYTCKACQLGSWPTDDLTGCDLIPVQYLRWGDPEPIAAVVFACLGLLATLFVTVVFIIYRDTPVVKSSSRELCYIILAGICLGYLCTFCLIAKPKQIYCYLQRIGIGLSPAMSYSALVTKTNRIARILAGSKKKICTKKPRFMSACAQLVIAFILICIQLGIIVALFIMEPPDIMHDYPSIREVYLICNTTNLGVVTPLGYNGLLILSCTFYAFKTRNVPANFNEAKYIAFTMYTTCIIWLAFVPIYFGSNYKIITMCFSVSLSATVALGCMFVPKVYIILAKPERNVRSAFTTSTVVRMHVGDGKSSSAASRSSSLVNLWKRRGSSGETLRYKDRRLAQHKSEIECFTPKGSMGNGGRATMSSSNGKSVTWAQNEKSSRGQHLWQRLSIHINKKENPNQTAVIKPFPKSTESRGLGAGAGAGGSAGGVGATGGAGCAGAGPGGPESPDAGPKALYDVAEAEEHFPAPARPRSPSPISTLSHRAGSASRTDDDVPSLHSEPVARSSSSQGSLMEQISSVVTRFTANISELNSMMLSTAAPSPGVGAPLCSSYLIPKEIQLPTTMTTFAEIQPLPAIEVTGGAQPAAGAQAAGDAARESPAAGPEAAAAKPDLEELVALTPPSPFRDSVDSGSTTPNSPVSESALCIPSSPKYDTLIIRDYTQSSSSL

Consider `CCN1C(=O)N(c2ccc(C#Cc3cccnc3)cn2)C2CCCCC21` (configuration not stated), for which the EC50 came to 69 nM. The value for `CN1CC(C)(C)CN(c2ccc(C#Cc3ccccc3)cn2)C1=O` was 33 nM.

The term EC50 denotes the concentration needed to bring the measured effect to its halfway point.
